For 15 compounds, T/C results are on record in PubChem BioAssay AID296 (DTP/NCI, 2004).

The assay relates to MX-1 breast xenograft, nude mice, tumor weight T/C. In words: NCI In Vivo Anticancer Drug Screen. Data for tumor model Human Mammary Carcinoma MX-1 Xenograft (intrarenal inoculation) in NU/NU Swiss (nude) mice. The note with it: endpoint: mean tumor weight change, higher = larger tumour. In outline: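 Antitumour effect measured in vivo against vehicle controls, expressed as T/C.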
(In general: A xenograft is tissue or cells of one species grown in another, often human tumour cells in immunodeficient mice.)

Setting [1] is: dose: 50.0 mg/kg/injection, schedule: Q04DX003 (sc), vehicle: saline.
Where [2] appears, read: dose: 300.0 mg/kg/injection, schedule: Q04DX003 (sc), vehicle: saline with Tween-80.
Where [3] appears, read: dose: 600.0 mg/kg/injection, schedule: Q04DX003 (sc), vehicle: saline with Tween-80.
Setting [4] is: dose: 150.0 mg/kg/injection, schedule: Q04DX003 (sc), vehicle: saline with Tween-80.
Where [5] appears, read: dose: 200.0 mg/kg/injection, schedule: Q01DX010 (sc), vehicle: saline.

“And” between values parts separate entries of the source, which are not always exact repeats. Identical values can stand only once. Results filed as inconclusive are left out.

Regarding `CC(=O)OC1C(O)C(C)OC(OC2C(OC(=O)C3CCC4C(C3)OC3(CC(OC(=O)/C=C/c5ccccc5)C(C)CO3)C43CO3)OC(C)C(O)C2OC(C)=O)C1O` (stereo unspecified), the T/C by setting is: (dose: 15.0 mg/kg/injection, schedule: Q04DX003 (sc), vehicle: distilled water + Tween-80) 124 % of control; (dose: 30.0 mg/kg/injection, schedule: Q04DX003 (sc), vehicle: distilled water + Tween-80) 117 % of control; (dose: 60.0 mg/kg/injection, schedule: Q04DX003 (sc), vehicle: distilled water + Tween-80) 73 % of control; (dose: 120.0 mg/kg/injection, schedule: Q04DX003 (sc), vehicle: distilled water + Tween-80) 61 % of control.

Take `CNC(=O)ON(C(C)=O)C(=O)NC`: the T/C under setting [1] is 69 % of control; the T/C (dose: 100.0 mg/kg/injection, schedule: Q01DX010 (sc), vehicle: water) was 108 % of control; the T/C (dose: 150.0 mg/kg/injection, schedule: Q01DX010 (sc), vehicle: water) was 67 % of control; the T/C (dose: 200.0 mg/kg/injection, schedule: Q01DX010 (sc), vehicle: water) was 85 % of control; the T/C (dose: 200.0 mg/kg/injection, schedule: Q04DX003 (sc), vehicle: saline) was 16 % of control.

`C=C1C(=O)C2=CC1CCC(=O)C1(C)CCC(OC(C)=O)C(C)(C)C1CC2O` (stereo unspecified): the T/C is 107 % of control (dose: 30.0 mg/kg/injection, schedule: Q04DX003 (sc), vehicle: Klucel (hydroxypropylcellulose) (HPC)); 69 % of control (dose: 60.0 mg/kg/injection, schedule: Q04DX003 (sc), vehicle: Klucel (hydroxypropylcellulose) (HPC)); 42 % of control (dose: 120.0 mg/kg/injection, schedule: Q04DX003 (sc), vehicle: Klucel (hydroxypropylcellulose) (HPC)).

For the compound `C[Si](C)(CCl)N[Si](C)(C)CCl`, the T/C is, setting by setting: under setting [2], 50 % of control; under setting [3], 35 % of control.

In the case of `COc1ccc2[nH]c3ccc4cc[n+](CCN5CCC(C6CCN(CC[n+]7ccc8ccc9[nH]c%10ccc(OC)cc%10c9c8c7)CC6)CC5)cc4c3c2c1`, the T/C is 108 % of control (dose: 200.0 mg/kg/injection, schedule: Q04DX003 (sc), vehicle: Klucel (hydroxypropylcellulose) (HPC)); 80 % of control (dose: 400.0 mg/kg/injection, schedule: Q04DX003 (sc), vehicle: Klucel (hydroxypropylcellulose) (HPC)); 99 % of control (dose: 800.0 mg/kg/injection, schedule: Q04DX003 (sc), vehicle: Klucel (hydroxypropylcellulose) (HPC)); 80 % of control (dose: 1600.0 mg/kg/injection, schedule: Q04DX003 (sc), vehicle: Klucel (hydroxypropylcellulose) (HPC)).

As to `CC(=O)O[C@H]1C(=O)[C@@]2(C)[C@H]([C@H](OC(=O)c3ccccc3)[C@]3(O)C[C@H](OC(=O)[C@H](O)[C@@H](NC(=O)c4ccccc4)c4ccccc4)C(C)=C1C3(C)C)[C@]1(OC(C)=O)CO[C@@H]1C[C@@H]2O`, the T/C runs as follows: (dose: 2.5 mg/kg/injection, schedule: Q01DX010 (sc), vehicle: Klucel (hydroxypropylcellulose) (HPC)) 83 % of control; (dose: 5.0 mg/kg/injection, schedule: Q01DX010 (sc), vehicle: Klucel (hydroxypropylcellulose) (HPC)) 77 % of control; (dose: 10.0 mg/kg/injection, schedule: Q01DX010 (sc), vehicle: Klucel (hydroxypropylcellulose) (HPC)) 46 % of control; (dose: 20.0 mg/kg/injection, schedule: Q01DX010 (sc), vehicle: Klucel (hydroxypropylcellulose) (HPC)) 73 % of control; (dose: 40.0 mg/kg/injection, schedule: Q01DX010 (sc), vehicle: Klucel (hydroxypropylcellulose) (HPC)) 48 % of control; (dose: 80.0 mg/kg/injection, schedule: Q01DX010 (sc), vehicle: Klucel (hydroxypropylcellulose) (HPC)) 36 % of control. Further, the T/C (dose: 400.0 mg/kg/injection, schedule: Q01DX010 (sc), vehicle: Klucel (hydroxypropylcellulose) (HPC)) was 6 % of control.

Take `O=C1C2CC=CCC2C(=O)N1SC(Cl)(Cl)Cl` (stereo unspecified): the T/C (dose: 37.5 mg/kg/injection, schedule: Q04DX003 (sc), vehicle: saline with Tween-80) was 85 % of control; the T/C (dose: 75.0 mg/kg/injection, schedule: Q04DX003 (sc), vehicle: saline with Tween-80) is 77 % of control; the T/C under setting [4] is 97 % of control and 119 % of control; the T/C under setting [2] was 97 % of control and 112 % of control.

Regarding `OCC1OC(n2cnc3c(=S)nc[nH]c32)C(O)C1O` (stereo unspecified), the T/C reads like this: (dose: 25.0 mg/kg/injection, schedule: Q01DX010 (sc), vehicle: saline) 38 % of control and 60 % of control; (dose: 50.0 mg/kg/injection, schedule: Q01DX010 (sc), vehicle: suspension in saline) 84 % of control; (dose: 100.0 mg/kg/injection, schedule: Q01DX010 (sc), vehicle: saline) 12 % of control and 17 % of control; (dose: 100.0 mg/kg/injection, schedule: Q01DX010 (sc), vehicle: suspension in saline) -81 % of control; under setting [5], -22 % of control; (dose: 300.0 mg/kg/injection, schedule: Q04DX003 (sc), vehicle: saline) 98 % of control. In addition, the T/C is 69 % of control (dose: 600.0 mg/kg/injection, schedule: Q04DX003 (sc), vehicle: saline); 39 % of control (dose: 1200.0 mg/kg/injection, schedule: Q04DX003 (sc), vehicle: saline); 13 % of control (dose: 2400.0 mg/kg/injection, schedule: Q04DX003 (sc), vehicle: saline).

Consider `Nc1nc2n[nH]nc2c(=O)[nH]1`, for which the T/C (dose: 75.0 mg/kg/injection, schedule: Q04DX003 (ip), vehicle: suspension in saline) was 22 % of control and 46 % of control; the T/C (dose: 75.0 mg/kg/injection, schedule: Q04DX003 (sc), vehicle: suspension in saline) is 35 % of control; the T/C (dose: 150.0 mg/kg/injection, schedule: Q04DX003 (ip), vehicle: suspension in saline) is 6 % of control; the T/C (dose: 150.0 mg/kg/injection, schedule: Q04DX003 (sc), vehicle: suspension in saline) was 18 % of control; the T/C (dose: 300.0 mg/kg/injection, schedule: Q04DX003 (ip), vehicle: suspension in saline) was 1 % of control; the T/C (dose: 600.0 mg/kg/injection, schedule: Q04DX003 (sc), vehicle: suspension in saline) was -77 % of control.

`CN(C)C=O`: the T/C runs as follows: under setting [5], 10 % of control; (dose: 1896.0 mg/kg/injection, schedule: Q01DX010 (sc), vehicle: suspension in saline) 1 % of control; (dose: 2844.0 mg/kg/injection, schedule: Q01DX010 (sc), vehicle: suspension in saline) -44 % of control; (dose: 4266.0 mg/kg/injection, schedule: Q01DX010 (sc), vehicle: suspension in saline) -11 % of control.

For the compound `COc1cc2c(cc1O)N=C[C@@H]1CCC(O)N1C2=O` (mixture of isomers), the T/C (dose: 1.0 mg/kg/injection, schedule: Q01DX010 (sc), vehicle: saline) was 295 % of control; the T/C (dose: 2.0 mg/kg/injection, schedule: Q01DX010 (sc), vehicle: saline) was 197 % of control; the T/C (dose: 4.0 mg/kg/injection, schedule: Q01DX010 (sc), vehicle: saline) is 214 % of control; the T/C (dose: 8.0 mg/kg/injection, schedule: Q01DX010 (sc), vehicle: saline) was 187 % of control.

Consider `c1cc(-c2cc3ccc(C4=NCCN4)cc3[nH]2)ccc1C1=NCCN1`, for which the T/C is, setting by setting: (dose: 25.0 mg/kg/injection, schedule: Q04DX003 (sc), vehicle: saline) 66 % of control; under setting [1], 73 % of control; (dose: 100.0 mg/kg/injection, schedule: Q04DX003 (sc), vehicle: saline) 50 % of control.

Consider `COc1ccc(OC)c(/C=C/c2ccnc3ccccc23)c1`, for which the T/C is, setting by setting: under setting [4], 96 % of control; under setting [2], 91 % of control; under setting [3], 96 % of control; (dose: 1200.0 mg/kg/injection, schedule: Q04DX003 (sc), vehicle: saline with Tween-80) 96 % of control.

In the case of `CNC(=O)OCc1c(COC(=O)NC)c(-c2ccc(Cl)c(Cl)c2)n2c1Cc1ccccc1C2`, the T/C reads like this: (dose: 300.0 mg/kg/injection, schedule: Q04DX003 (sc), vehicle: distilled water + Tween-80) 64 % of control; (dose: 600.0 mg/kg/injection, schedule: Q04DX003 (sc), vehicle: distilled water + Tween-80) 70 % of control; (dose: 1200.0 mg/kg/injection, schedule: Q04DX003 (sc), vehicle: distilled water + Tween-80) 103 % of control; (dose: 2400.0 mg/kg/injection, schedule: Q04DX003 (sc), vehicle: distilled water + Tween-80) 36 % of control.

For the compound `CCC1CN2C(=N1)c1ccccc1-c1cc(Cl)ccc12` (stereo unspecified), the T/C by setting is: (dose: 12.5 mg/kg/injection, schedule: Q01DX010 (sc), vehicle: saline with Tween-80) 108 % of control; (dose: 25.0 mg/kg/injection, schedule: Q01DX010 (sc), vehicle: saline with Tween-80) 118 % of control; (dose: 50.0 mg/kg/injection, schedule: Q01DX010 (sc), vehicle: saline with Tween-80) 108 % of control.
